Results published in ChEMBL document CHEMBL1143501, “Structure-activity relationship of the novel bivalent and C-terminal modified analogues of endomorphin-2” (Bioorg Med Chem Lett, 2005).
Starred links: 1 amine or outer side, 2 acyl side, 3 side chain; linkers in the order of their positions; H or OH if unused. Positions of bridges follow the written chain, without caps; N, C: chain ends. Residues, ends and D or L forms follow the SMILES beside them. Chains are numbered I, II in the order given. Ethylenediamine = C(CN[*:2])N[*:1]

Key:
[1] = Mean value of binding constant for Opioid receptors assayed with [3H]DAMGO
[2] = Mean value of binding constant for Opioid receptors assayed with [3H]DPDPE
[3] = molecular target: Delta-type opioid receptor (Mus musculus, UniProt P32300); test: In vitro inhibitory concentration against Opioid receptor delta 1 was measured using mouse vas deferens assay
Chain of Delta-type opioid receptor (P32300 whole entry): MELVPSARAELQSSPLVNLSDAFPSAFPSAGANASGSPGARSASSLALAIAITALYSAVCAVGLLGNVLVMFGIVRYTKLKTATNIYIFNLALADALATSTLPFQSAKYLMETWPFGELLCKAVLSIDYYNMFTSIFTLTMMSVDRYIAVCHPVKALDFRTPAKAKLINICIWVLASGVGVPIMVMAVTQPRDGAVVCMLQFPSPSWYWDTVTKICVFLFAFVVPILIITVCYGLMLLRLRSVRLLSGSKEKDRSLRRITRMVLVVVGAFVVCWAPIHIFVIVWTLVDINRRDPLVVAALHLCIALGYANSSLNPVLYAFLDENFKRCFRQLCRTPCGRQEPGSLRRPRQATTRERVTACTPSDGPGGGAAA

[4] = molecular target: Mu-type opioid receptor (Cavia porcellus, UniProt P97266); test: In vitro inhibitory concentration against Opioid receptor mu 1 was measured using guinea pig ileum assay; format: tissue-based
Chain of Mu-type opioid receptor (P97266 whole entry): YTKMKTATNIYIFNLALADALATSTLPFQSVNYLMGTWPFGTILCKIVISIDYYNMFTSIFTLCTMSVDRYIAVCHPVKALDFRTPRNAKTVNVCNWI

[5] = Selectivity for Opioid receptor mu 1 to that of Opioid receptor delta 1
[6] = molecular target: Delta-type opioid receptor (Mus musculus) (UniProt P32300); test: In vitro potency of EM-2 measured towards Opioid receptor delta 1 using mouse vas deferens assay; format: functional, tissue-based
Chain of Delta-type opioid receptor (Mus musculus) (P32300 whole entry): as the sequence (P32300 whole entry) above

[7] = molecular target: Mu-type opioid receptor (Cavia porcellus) (UniProt P97266); test: Relative potency of EM-2 measured towards Opioid receptor mu 1 assayed with [3H]DAMGO
Chain of Mu-type opioid receptor (Cavia porcellus) (P97266 whole entry): as the sequence (P97266 whole entry) above

[8] = molecular target: Mu-type opioid receptor (Cavia porcellus) (UniProt P97266); test: In vitro potency of EM-2 was measured towards Opioid receptor mu 1 using guinea pig ileum assay; format: tissue-based
[9] = molecular target: Delta-type opioid receptor (Mus musculus) (UniProt P32300); test: Ratio of IC50s against Opioid receptor delta 1 was measured in mouse vas deferens to that of guinea pig ileum; format: tissue-based
[10] = molecular target: Delta-type opioid receptor (Mus musculus) (UniProt P32300); test: Relative potency of EM-2 measured towards Opioid receptor delta 1 assayed with [3H]DPDPE

Compound: N[C@@H](Cc1ccc(O)cc1)C(=O)N1CCC[C@H]1C(=O)N[C@@H](Cc1ccccc1)C(=O)N[C@@H](Cc1ccccc1)C(=O)NCCCCNC(=O)[C@H](Cc1ccccc1)NC(=O)[C@H](Cc1ccccc1)NC(=O)[C@@H]1CCCN1C(=O)[C@@H](N)Cc1ccc(O)cc1
- Ki [1]: 168 nM
- Ki [2]: 7020 nM
- IC50 [3]: > 10000 nM

Compound: N[C@@H](Cc1ccc(O)cc1)C(=O)N1CCC[C@H]1C(=O)N[C@@H](Cc1ccccc1)C(=O)N[C@@H](Cc1ccccc1)C(=O)NNC(=O)[C@H](Cc1ccccc1)NC(=O)[C@H](Cc1ccccc1)NC(=O)[C@@H]1CCCN1C(=O)[C@@H](N)Cc1ccc(O)cc1
- Ki [1]: 96.4 nM
- Ki [2]: 539 nM
- IC50 [4]: 518 nM
- IC50 [3]: 721 nM

Compound: COC(=O)[C@H](Cc1ccccc1)NC(=O)[C@H](Cc1ccccc1)NC(=O)[C@@H]1CCCN1C(=O)[C@@H](N)Cc1ccc(O)cc1
- Ki [1]: 9.07 nM
- Ki [2]: > 10000 nM
- IC50 [4]: 42.1 nM
- Selectivity [5]: > 1110
- Relative potency [6]: 1.3
- Relative potency [7]: 0.91
- Relative potency [8]: 0.35
- Ratio [9]: 0.88
- IC50 [3]: 37.2 nM

Compound: N[C@@H](Cc1ccc(O)cc1)C(=O)N1CCC[C@H]1C(=O)N[C@@H](Cc1ccccc1)C(=O)N[C@@H](Cc1ccccc1)C(=O)NCCNC(=O)[C@H](Cc1ccccc1)NC(=O)[C@H](Cc1ccccc1)NC(=O)[C@@H]1CCCN1C(=O)[C@@H](N)Cc1ccc(O)cc1
- Ki [1]: 86.3 nM
- Ki [2]: 613 nM
- IC50 [4]: 3540 nM
- IC50 [3]: 29 nM

Compound: N[C@@H](Cc1ccc(O)cc1)C(=O)N1CCC[C@H]1C(=O)N[C@@H](Cc1ccccc1)C(=O)NNC(=O)[C@H](Cc1ccccc1)NC(=O)[C@@H]1CCCN1C(=O)[C@@H](N)Cc1ccc(O)cc1
- Ki [1]: 30.7 nM
- Ki [2]: 1900 nM
- IC50 [4]: 1140 nM
- IC50 [3]: 3200 nM

Compound: NNC(=O)[C@H](Cc1ccccc1)NC(=O)[C@H](Cc1ccccc1)NC(=O)[C@@H]1CCCN1C(=O)[C@@H](N)Cc1ccc(O)cc1
- Ki [1]: 9.35 nM
- Ki [2]: > 10000 nM
- IC50 [4]: 132 nM
- Selectivity [5]: > 1070
- Relative potency [6]: 0.26
- Relative potency [7]: 0.88
- Relative potency [8]: 0.11
- Ratio [9]: 1.4
- IC50 [3]: 185 nM

Compound: N[C@@H](Cc1ccc(O)cc1)C(=O)N1CCC[C@H]1C(=O)N[C@@H](Cc1ccccc1)C(=O)NCCNC(=O)[C@H](Cc1ccccc1)NC(=O)[C@@H]1CCCN1C(=O)[C@@H](N)Cc1ccc(O)cc1 (I: H-Tyr-Pro-Phe / II: H-Tyr-Pro-Phe; linker I:C-II:C via Ethylenediamine)
- Ki [1]: 26.1 nM
- Ki [2]: 923 nM
- IC50 [4]: 218 nM
- IC50 [3]: 1010 nM

Compound: H-YPFYPF-NH2
- Selectivity [5]: 61.8
- Relative potency [6]: 0.015
- Relative potency [7]: 0.27
- Relative potency [10]: 4.41
- Relative potency [8]: 0.013
- Ratio [9]: 2.82

Compound: NC(=O)[C@H](Cc1ccccc1)NC(=O)[C@@H]1CCCN1C(=O)[C@@H](N)Cc1ccc(O)cc1 (H-Tyr-Pro-Phe-NH2)
- Ki [1]: 140 nM
- Ki [2]: > 10000 nM
- Selectivity [5]: > 71.4
- Relative potency [7]: 0.059

Compound: NC(=O)[C@H](Cc1ccccc1)NC(=O)[C@@H]1CCCN1C(=O)[C@H](Cc1ccc(O)cc1)NCCC(=O)[C@H](Cc1ccccc1)NC(=O)[C@@H]1CCCN1C(=O)[C@@H](N)Cc1ccc(O)cc1
- Selectivity [5]: 35.4
- Relative potency [6]: 0.048
- Relative potency [7]: 0.32
- Relative potency [10]: 9.06
- Relative potency [8]: 0.067
- Ratio [9]: 4.64
